# According to PubChem BioAssay (NCI):
#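 Dose response: 5 concentrations. Exposure: 48 h. Format: 96-well plates. Endpoint: linear interpolation; highest concentration if not reached. Here, GI50 denotes the concentration required for 50% inhibition of growth. TGI denotes the concentration required for complete inhibition of growth.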
# System: HOP-62 NSCLC
# Experiment: NCI tumour cell line growth inhibition, 48 h
row,SMILES,TGI
1,O=C(/C=C/C1C(=O)NC(=O)NC1=O)CC(=O)C(=O)Nc1cc(Cl)c(Cl)cc1Cl,> 100 µM
2,CCOC(=O)C(C)N1C(=O)c2ccccc2S1(=O)=O (configuration not stated),> 100 µM
3,COc1cc(C(C#N)NNc2nc(C)cc(=O)[nH]2)cc(OC)c1OC (configuration not stated),> 100 µM

# System: HT29 colon
# Experiment: NCI tumour cell line growth inhibition, 48 h
row,SMILES,TGI
1,c1ccc(-c2ccnc3c2ccc2c(-c4ccccc4)ccnc23)cc1,10.8 µM
2,CC(=O)NC(CCCN(Cc1ccccc1)C(=O)N(C)N=O)C(=O)NCc1ccccc1 (configuration not stated),> 100 µM
3,O=C(/C=C/C1C(=O)NC(=O)NC1=O)CC(=O)C(=O)Nc1cc(Cl)c(Cl)cc1Cl,> 100 µM
4,c1ccc(-c2nnc3nn4c(-c5ccccc5)cnnc4c3c2-c2ccccc2)cc1,> 100 µM
5,CCOC(=O)C(C)N1C(=O)c2ccccc2S1(=O)=O (configuration not stated),> 100 µM
6,COc1cc(C(C#N)NNc2nc(C)cc(=O)[nH]2)cc(OC)c1OC (configuration not stated),> 100 µM
7,COC(=O)C(C(=O)C(N)=O)c1csc(-n2nc(-c3ccccc3)cc2-c2ccccc2)n1 (configuration not stated),> 100 µM

# System: NCI-H23 lung
# Experiment: NCI tumour cell line growth inhibition, 48 h
row,SMILES,TGI
1,c1ccc(-c2ccnc3c2ccc2c(-c4ccccc4)ccnc23)cc1,14.1 µM
2,CC(=O)NC(CCCN(Cc1ccccc1)C(=O)N(C)N=O)C(=O)NCc1ccccc1 (configuration not stated),> 100 µM
3,O=C(/C=C/C1C(=O)NC(=O)NC1=O)CC(=O)C(=O)Nc1cc(Cl)c(Cl)cc1Cl,> 100 µM
4,c1ccc(-c2nnc3nn4c(-c5ccccc5)cnnc4c3c2-c2ccccc2)cc1,> 100 µM
5,CCOC(=O)C(C)N1C(=O)c2ccccc2S1(=O)=O (configuration not stated),> 100 µM
6,COc1cc(C(C#N)NNc2nc(C)cc(=O)[nH]2)cc(OC)c1OC (configuration not stated),> 100 µM
7,COC(=O)C(C(=O)C(N)=O)c1csc(-n2nc(-c3ccccc3)cc2-c2ccccc2)n1 (configuration not stated),> 100 µM

# System: SN12C renal
# Experiment: NCI tumour cell line growth inhibition, 48 h
row,SMILES,TGI
1,c1ccc(-c2ccnc3c2ccc2c(-c4ccccc4)ccnc23)cc1,6.54 µM
2,CC(=O)NC(CCCN(Cc1ccccc1)C(=O)N(C)N=O)C(=O)NCc1ccccc1 (configuration not stated),> 100 µM
3,O=C(/C=C/C1C(=O)NC(=O)NC1=O)CC(=O)C(=O)Nc1cc(Cl)c(Cl)cc1Cl,> 100 µM
4,c1ccc(-c2nnc3nn4c(-c5ccccc5)cnnc4c3c2-c2ccccc2)cc1,> 100 µM
5,CCOC(=O)C(C)N1C(=O)c2ccccc2S1(=O)=O (configuration not stated),> 100 µM
6,COc1cc(C(C#N)NNc2nc(C)cc(=O)[nH]2)cc(OC)c1OC (configuration not stated),> 100 µM

# System: K-562 leukemia
# Experiment: NCI tumour cell line growth inhibition, 48 h
row,SMILES,TGI
1,c1ccc(-c2ccnc3c2ccc2c(-c4ccccc4)ccnc23)cc1,11.4 µM
2,CC(=O)NC(CCCN(Cc1ccccc1)C(=O)N(C)N=O)C(=O)NCc1ccccc1 (configuration not stated),> 100 µM
3,O=C(/C=C/C1C(=O)NC(=O)NC1=O)CC(=O)C(=O)Nc1cc(Cl)c(Cl)cc1Cl,> 100 µM
4,[Cl-].[Fe+2].c1ccc(-c2ccnc3c2ccc2c(-c4ccccc4)ccnc23)cc1.c1ccc(-c2ccnc3c2ccc2c(-c4ccccc4)ccnc23)cc1.c1ccc(-c2ccnc3c2ccc2c(-c4ccccc4)ccnc23)cc1,0.139 µM
5,c1ccc(-c2nnc3nn4c(-c5ccccc5)cnnc4c3c2-c2ccccc2)cc1,> 100 µM
6,CCOC(=O)C(C)N1C(=O)c2ccccc2S1(=O)=O (configuration not stated),> 100 µM
7,COc1cc(C(C#N)NNc2nc(C)cc(=O)[nH]2)cc(OC)c1OC (configuration not stated),> 100 µM
8,COC(=O)C(C(=O)C(N)=O)c1csc(-n2nc(-c3ccccc3)cc2-c2ccccc2)n1 (configuration not stated),> 31.6 µM

# System: SNB-75 CNS
# Experiment: NCI tumour cell line growth inhibition, 48 h
row,SMILES,TGI
1,c1ccc(-c2ccnc3c2ccc2c(-c4ccccc4)ccnc23)cc1,9.43 µM
2,CC(=O)NC(CCCN(Cc1ccccc1)C(=O)N(C)N=O)C(=O)NCc1ccccc1 (configuration not stated),91 µM
3,O=C(/C=C/C1C(=O)NC(=O)NC1=O)CC(=O)C(=O)Nc1cc(Cl)c(Cl)cc1Cl,> 100 µM
4,c1ccc(-c2nnc3nn4c(-c5ccccc5)cnnc4c3c2-c2ccccc2)cc1,83.9 µM
5,CCOC(=O)C(C)N1C(=O)c2ccccc2S1(=O)=O (configuration not stated),> 100 µM
6,COc1cc(C(C#N)NNc2nc(C)cc(=O)[nH]2)cc(OC)c1OC (configuration not stated),> 100 µM
7,COC(=O)C(C(=O)C(N)=O)c1csc(-n2nc(-c3ccccc3)cc2-c2ccccc2)n1 (configuration not stated),> 31.6 µM

# System: OVCAR-4 ovarian
# Experiment: NCI tumour cell line growth inhibition, 48 h
row,SMILES,TGI
1,c1ccc(-c2ccnc3c2ccc2c(-c4ccccc4)ccnc23)cc1,12.7 µM
2,CC(=O)NC(CCCN(Cc1ccccc1)C(=O)N(C)N=O)C(=O)NCc1ccccc1 (configuration not stated),> 100 µM
3,O=C(/C=C/C1C(=O)NC(=O)NC1=O)CC(=O)C(=O)Nc1cc(Cl)c(Cl)cc1Cl,> 100 µM
4,c1ccc(-c2nnc3nn4c(-c5ccccc5)cnnc4c3c2-c2ccccc2)cc1,42.5 µM
5,CCOC(=O)C(C)N1C(=O)c2ccccc2S1(=O)=O (configuration not stated),> 100 µM
6,COc1cc(C(C#N)NNc2nc(C)cc(=O)[nH]2)cc(OC)c1OC (configuration not stated),> 100 µM
7,COC(=O)C(C(=O)C(N)=O)c1csc(-n2nc(-c3ccccc3)cc2-c2ccccc2)n1 (configuration not stated),> 31.6 µM

# System: A498 renal
# Experiment: NCI tumour cell line growth inhibition, 48 h
SMILES,TGI,GI50
c1ccc(-c2ccnc3c2ccc2c(-c4ccccc4)ccnc23)cc1,6.99 µM,–
CC(=O)NC(CCCN(Cc1ccccc1)C(=O)N(C)N=O)C(=O)NCc1ccccc1 (configuration not stated),> 100 µM,–
O=C(/C=C/C1C(=O)NC(=O)NC1=O)CC(=O)C(=O)Nc1cc(Cl)c(Cl)cc1Cl,> 100 µM,–
[Cl-].[Fe+2].c1ccc(-c2ccnc3c2ccc2c(-c4ccccc4)ccnc23)cc1.c1ccc(-c2ccnc3c2ccc2c(-c4ccccc4)ccnc23)cc1.c1ccc(-c2ccnc3c2ccc2c(-c4ccccc4)ccnc23)cc1,0.39 µM,–
c1ccc(-c2nnc3nn4c(-c5ccccc5)cnnc4c3c2-c2ccccc2)cc1,> 100 µM,–
CCOC(=O)C(C)N1C(=O)c2ccccc2S1(=O)=O (configuration not stated),> 100 µM,29.1 µM
COC(=O)C(C(=O)C(N)=O)c1csc(-n2nc(-c3ccccc3)cc2-c2ccccc2)n1 (configuration not stated),> 31.6 µM,–

# System: RPMI-8226 leukemia
# Experiment: NCI tumour cell line growth inhibition, 48 h
row,SMILES,TGI
1,CC(=O)NC(CCCN(Cc1ccccc1)C(=O)N(C)N=O)C(=O)NCc1ccccc1 (configuration not stated),> 100 µM
2,O=C(/C=C/C1C(=O)NC(=O)NC1=O)CC(=O)C(=O)Nc1cc(Cl)c(Cl)cc1Cl,> 100 µM
3,c1ccc(-c2nnc3nn4c(-c5ccccc5)cnnc4c3c2-c2ccccc2)cc1,> 100 µM
4,CCOC(=O)C(C)N1C(=O)c2ccccc2S1(=O)=O (configuration not stated),> 100 µM
5,COc1cc(C(C#N)NNc2nc(C)cc(=O)[nH]2)cc(OC)c1OC (configuration not stated),> 100 µM
6,COC(=O)C(C(=O)C(N)=O)c1csc(-n2nc(-c3ccccc3)cc2-c2ccccc2)n1 (configuration not stated),> 31.6 µM

# System: NCI-H522 lung
# Experiment: NCI tumour cell line growth inhibition, 48 h
row,SMILES,TGI
1,c1ccc(-c2ccnc3c2ccc2c(-c4ccccc4)ccnc23)cc1,5.92 µM
2,CC(=O)NC(CCCN(Cc1ccccc1)C(=O)N(C)N=O)C(=O)NCc1ccccc1 (configuration not stated),> 100 µM
3,O=C(/C=C/C1C(=O)NC(=O)NC1=O)CC(=O)C(=O)Nc1cc(Cl)c(Cl)cc1Cl,> 100 µM
4,CCOC(=O)C(C)N1C(=O)c2ccccc2S1(=O)=O (configuration not stated),> 100 µM
5,COc1cc(C(C#N)NNc2nc(C)cc(=O)[nH]2)cc(OC)c1OC (configuration not stated),> 100 µM
6,COC(=O)C(C(=O)C(N)=O)c1csc(-n2nc(-c3ccccc3)cc2-c2ccccc2)n1 (configuration not stated),> 31.6 µM

# System: OVCAR-3 ovarian
# Experiment: NCI tumour cell line growth inhibition, 48 h
row,SMILES,TGI
1,c1ccc(-c2ccnc3c2ccc2c(-c4ccccc4)ccnc23)cc1,10.1 µM
2,CC(=O)NC(CCCN(Cc1ccccc1)C(=O)N(C)N=O)C(=O)NCc1ccccc1 (configuration not stated),> 100 µM
3,O=C(/C=C/C1C(=O)NC(=O)NC1=O)CC(=O)C(=O)Nc1cc(Cl)c(Cl)cc1Cl,> 100 µM
4,c1ccc(-c2nnc3nn4c(-c5ccccc5)cnnc4c3c2-c2ccccc2)cc1,> 100 µM
5,CCOC(=O)C(C)N1C(=O)c2ccccc2S1(=O)=O (configuration not stated),> 100 µM
6,COc1cc(C(C#N)NNc2nc(C)cc(=O)[nH]2)cc(OC)c1OC (configuration not stated),> 100 µM
7,COC(=O)C(C(=O)C(N)=O)c1csc(-n2nc(-c3ccccc3)cc2-c2ccccc2)n1 (configuration not stated),> 100 µM

# System: U251 CNS
# Experiment: NCI tumour cell line growth inhibition, 48 h
row,SMILES,TGI
1,c1ccc(-c2ccnc3c2ccc2c(-c4ccccc4)ccnc23)cc1,6.79 µM
2,CC(=O)NC(CCCN(Cc1ccccc1)C(=O)N(C)N=O)C(=O)NCc1ccccc1 (configuration not stated),> 100 µM
3,O=C(/C=C/C1C(=O)NC(=O)NC1=O)CC(=O)C(=O)Nc1cc(Cl)c(Cl)cc1Cl,> 100 µM
4,c1ccc(-c2nnc3nn4c(-c5ccccc5)cnnc4c3c2-c2ccccc2)cc1,> 100 µM
5,CCOC(=O)C(C)N1C(=O)c2ccccc2S1(=O)=O (configuration not stated),> 100 µM
6,COc1cc(C(C#N)NNc2nc(C)cc(=O)[nH]2)cc(OC)c1OC (configuration not stated),> 100 µM
7,COC(=O)C(C(=O)C(N)=O)c1csc(-n2nc(-c3ccccc3)cc2-c2ccccc2)n1 (configuration not stated),> 31.6 µM

# System: M14 melanoma
# Experiment: NCI tumour cell line growth inhibition, 48 h
row,SMILES,TGI
1,c1ccc(-c2ccnc3c2ccc2c(-c4ccccc4)ccnc23)cc1,17.6 µM
2,CC(=O)NC(CCCN(Cc1ccccc1)C(=O)N(C)N=O)C(=O)NCc1ccccc1 (configuration not stated),> 100 µM
3,O=C(/C=C/C1C(=O)NC(=O)NC1=O)CC(=O)C(=O)Nc1cc(Cl)c(Cl)cc1Cl,> 100 µM
4,c1ccc(-c2nnc3nn4c(-c5ccccc5)cnnc4c3c2-c2ccccc2)cc1,> 100 µM
5,COc1cc(C(C#N)NNc2nc(C)cc(=O)[nH]2)cc(OC)c1OC (configuration not stated),> 100 µM
6,COC(=O)C(C(=O)C(N)=O)c1csc(-n2nc(-c3ccccc3)cc2-c2ccccc2)n1 (configuration not stated),> 31.6 µM

# System: M19-MEL melanoma
# Experiment: NCI tumour cell line growth inhibition, 48 h
row,SMILES,TGI
1,c1ccc(-c2ccnc3c2ccc2c(-c4ccccc4)ccnc23)cc1,5.14 µM
2,CC(=O)NC(CCCN(Cc1ccccc1)C(=O)N(C)N=O)C(=O)NCc1ccccc1 (configuration not stated),> 100 µM
3,O=C(/C=C/C1C(=O)NC(=O)NC1=O)CC(=O)C(=O)Nc1cc(Cl)c(Cl)cc1Cl,> 100 µM
4,c1ccc(-c2nnc3nn4c(-c5ccccc5)cnnc4c3c2-c2ccccc2)cc1,> 100 µM
5,CCOC(=O)C(C)N1C(=O)c2ccccc2S1(=O)=O (configuration not stated),> 100 µM
6,COc1cc(C(C#N)NNc2nc(C)cc(=O)[nH]2)cc(OC)c1OC (configuration not stated),> 100 µM
7,COC(=O)C(C(=O)C(N)=O)c1csc(-n2nc(-c3ccccc3)cc2-c2ccccc2)n1 (configuration not stated),> 31.6 µM

# System: SW-620 colon
# Experiment: NCI tumour cell line growth inhibition, 48 h
row,SMILES,TGI
1,c1ccc(-c2ccnc3c2ccc2c(-c4ccccc4)ccnc23)cc1,15 µM
2,CC(=O)NC(CCCN(Cc1ccccc1)C(=O)N(C)N=O)C(=O)NCc1ccccc1 (configuration not stated),> 100 µM
3,O=C(/C=C/C1C(=O)NC(=O)NC1=O)CC(=O)C(=O)Nc1cc(Cl)c(Cl)cc1Cl,> 100 µM
4,c1ccc(-c2nnc3nn4c(-c5ccccc5)cnnc4c3c2-c2ccccc2)cc1,> 100 µM
5,CCOC(=O)C(C)N1C(=O)c2ccccc2S1(=O)=O (configuration not stated),> 100 µM
